This note sets out measurements from US8278100B2, “Lasonolide compounds as reagents for inducing premature chromosome condensation and methods for treating disorders” (The United States of America, as Represented by the …, priority 2008, dated 2012).

Structures are written as SMILES. “Also recorded” adds a separate entry of the source.

The subject of assay [1] is phosphorylated-H3 Ser28. Put plainly: Western blot. The format is cell-based. The method, then:
(§1) Protein levels were measured by Western blotting with corresponding specific primary antibodies, including those against Cdc2 p34(Santa Cruz), cyclinB1 (Santa Cruz) (FIG. 4A), Anti-Acetylated-H3K9 (Upstate), phosphorylated-H3 Ser28 (Cell signaling). GAPDH was as the loading control.
A general note: In western blotting, separated proteins are transferred to a membrane and probed.

Assay [2] deals with Acetylated-H3K9. Put plainly: Western blot. It counts as cell-based. The method, then:
as §1

In assay [3] the test system is cyclinB1. Put plainly: Western blot. The format is cell-based. The protocol: as §1
Assay [4] concerns tumor cells. Put plainly: Premature chromosome condensation (PCC) induction, cells not specified. The format is cell-based. The protocol:
Burkitt's Lymphoma CA46 cells (500,000) (FIG. 1B) or breast cancer MDA-MB-231 cells (500,000) (FIG. 1A) were treated by 100 nM Lasonolide A (stock solution 100 μM in DMSO) for 1 h. Lymphocytes were treated with 200 nM Lasonolide A for 1 h. Cells were harvested with centrifuging on 2,000 rpm for 5 min at 4° C. Pellets were washed once by PBS and re-suspended in 1 mL PBS. 200 μL cells mixture were added to the chamber for cytospining. Cells were cytospun on 800 rpm for 10 min; slides were fixed in fresh-made 4% paraformaldehyde fixation for 20 min at room temperature, then moved to 70% ethanol for 20 min. Slides were stained with Propidium Iodide (“PI”) (20 μg/mL) and RNase A (100 μg/mL) for 15 min. Slides were washed with PBS for three times and mounted with Vectashield anti-fade mounting media (Vector Laboratories, Inc., Burlingame, Calif.). Images were taken using a Nikon Eclipse TE-300 confocal microscope.

Assay [5] relates to phosphorylated-H3 Ser28 in CA46 cells. Put plainly: Immunofluorescence assay. The format is cell-based, human. The protocol:
After drug treatments, CA46 cells were cytospun on the slides. Slides were fixed for 20 min with 4% paraformaldehyde in PBS (pH 7.4), and washed twice with PBS. After incubation for 20 min with 70% ethanol and washing with PBS, the cells were incubated in blocking buffer [8% bovine serum albumin (BSA) in PBS] for 1 h before incubation for 2 h with primary antibodies against phosphorylated-H3 Ser28 (Cell signaling) (FIG. 5). Slides were incubated for additional 1 h with the Alex488-conjugated secondary antibody (Alexa Fluoro 488 donkey anti-goat IgG, Molecular Probes, Invitrogen, CA). After three washes in PBS, cells were stained with 0.5 μg/mL propidium iodide (PI) and 100 μg/mL RNase A (Sigma, Mo.) for 15 min in the dark. Finally, slides were washed with PBS for three times and mounted with Vectashield anti-fade mounting media (Vector Laboratories, Inc., Burlingame, Calif.). Images were taken using a Nikon Eclipse TE-300 confocal microscope.

In assay [6] the test system is CA46 cells. Put plainly: Cell cycle analysis. The format is cell-based, human. Conditions: 24 h treatment. The method, then: (§2) After treatment, cells were collected, washed twice with ice-cold PBS, and fixed overnight with 70% precooled (−20° C.) ethanol. Fixed cells were resuspended in PBS containing 0.02 mg/mL RNase A (Roche, USA) and incubated at 37° C. for 15 min. Next, the cells were stained with 0.01 mg/mL propidium iodide (Sigma) in the dark at room temperature for 10 min. The DNA content was analyzed by flow cytometry using a FACSCalibur (Becton Dickinson, Sunnyvale, Calif.) with Cellquest and Modfit LT3.0 software (Becton Dickinson) (FIGS. 1D & 2A).

Assay [7] concerns MDA-MB-231 cells. Put plainly: Cell cycle analysis. It counts as cell-based, human. To be noted: 24 h treatment. The method, then: as §2
Assay [8] has as its system human lymphocytes. Put plainly: PCC induction and PI staining. It counts as cell-based. To be noted: 200 nM Lasonolide A, without additional reagents.
Assay [9] concerns the target T1, PP1 (Oryctolagus cuniculus, UniProt P62139).
T1 construct: purchased Biolabs
Put plainly: In vitro phosphatase activity assay. The format is biochemical. Conditions: compared with Okadaic Acid. The method, then: (§3) The inhibitory effect of active agents on PP2A or PP1 enzyme activity was determined by measuring the generation of free PO4 from the phosphopeptide RRA(pT)VA, using the molybdate-malachite green-phosphate complex assay. The phosphatase assay was performed in a PP2A-specific reaction buffer [50 mM imidazole (pH 7.2), 0.2 mM EGTA, 0.02% 2-mercaptoethanol, 0.1 mg/mL of bovine serum albumin] using 10 μ/M phosphopeptide substrate and 0.03 Units PP2A (Upstate), or in PP1-specific reaction buffer [50 mM HEPES, 2 mM Dithiothreitol, 0.025% Tween-20, 0.1 mM EGT 100 mM NaCl] together with 100 μM phosphopeptide substrate and 0.03 Units PP1 (Biolabs). Different concentrations of active agents were added in the reaction system. After a 20-min incubation at 30° C., molybdate dye was added, and the amount of free phosphate generated was determined from the optical density at 630 nm (VERSAmax, Molecular Device), using a standard curve for free phosphate. Phosphatase activity was defined as picomoles of free PO4 generated per minute per microgram of protein, and phosphatase activity without drug was defined as 100% (FIGS. 3C & 3D).

Assay [10] has as its target T2, PP2A (Homo sapiens, UniProt P67775).
T2 construct: purchased Upstate
Put plainly: In vitro phosphatase activity assay. The format is biochemical. Conditions: compared with Okadaic Acid. The protocol:
as §3

Assay [11] concerns MCF-7 cells. Put plainly: BrdU incorporation. It counts as cell-based. The method, then:
(§4) A number of cells (5×10^5) were pulse-labeled with 50 μmol/L BrdU (Calbiochem, La Jolla, Calif.) for 30 minutes. Cells were collected, fixed in 70% ethanol at 4° C., washed with PBS, resuspended in 3 mL 2 mol/L HCl/0.5% Triton X-100, and left at room temperature for 30 minutes. Cells were spun down after adding 6 mL 0.1 M sodium borate (pH 8.5). Pellets were washed with PBS/0.5% Tween-20 twice, then resuspended in 15 μL FITC-conjuncted anti-BrdU antibody (Becton Dickinson, Franklin Lakes, N.J.). After incubation with the anti-BrdU antibody at room temperature for 60 minutes, pellets were washed once with PBS, and resuspended in 500 μL of PI solution (50 μg/mL PI and 50 μg/mL RNase). Analyses were done with a FACScan flow cytometer (Becton Dickinson, San Jose, Calif.) (FIG. 2B).
A general note: Dividing cells build labelled thymidine or BrdU into new DNA.

Assay [12] has as its system CA 46 cells. Put plainly: BrdU incorporation. The format is cell-based, human. The method, then:
as §4

Assay [13] relates to MDA-MB-231 cells. Put plainly: BrdU incorporation. It counts as cell-based, human. The protocol: as §4
Assay [14] deals with chromosome condensation in each phase of the cell cycle. Put plainly: Chromosome spread assay. The format is cell-based. The method, then:
After the induction of PCC by Lasonolide A, cells were incubated in hypotonic solution (10 mM Tris-HCl [ph 7.4], 40 mM glycerol, 20 mM NaCl, 1 mM CaCl2, 0.5 mM MgCl2) at 37° C. for 15 min. Then followed with cytospining at 1,800 rpm for 10 min and normal PI staining as above (FIG. 1E).

T1 sequence (P62139 whole entry): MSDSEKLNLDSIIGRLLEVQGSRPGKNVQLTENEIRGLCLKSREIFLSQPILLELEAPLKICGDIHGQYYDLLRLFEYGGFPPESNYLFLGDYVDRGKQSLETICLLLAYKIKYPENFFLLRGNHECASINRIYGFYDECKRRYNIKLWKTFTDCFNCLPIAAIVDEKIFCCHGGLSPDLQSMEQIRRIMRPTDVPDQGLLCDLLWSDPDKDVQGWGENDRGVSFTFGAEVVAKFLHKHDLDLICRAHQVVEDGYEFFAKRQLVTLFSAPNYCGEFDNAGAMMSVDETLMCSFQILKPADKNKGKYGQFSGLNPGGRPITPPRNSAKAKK
T2 sequence (P67775 whole entry): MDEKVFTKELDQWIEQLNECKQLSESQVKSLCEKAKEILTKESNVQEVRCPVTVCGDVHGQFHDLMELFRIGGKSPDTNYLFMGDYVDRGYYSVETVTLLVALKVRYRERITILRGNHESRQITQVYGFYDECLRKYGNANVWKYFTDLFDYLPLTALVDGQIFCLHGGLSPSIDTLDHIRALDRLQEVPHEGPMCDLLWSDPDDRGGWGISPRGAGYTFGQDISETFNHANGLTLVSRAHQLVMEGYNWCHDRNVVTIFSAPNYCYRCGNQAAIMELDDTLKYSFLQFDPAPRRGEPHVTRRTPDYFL
T2 sequence (P30153 2-589 partner limits assumed): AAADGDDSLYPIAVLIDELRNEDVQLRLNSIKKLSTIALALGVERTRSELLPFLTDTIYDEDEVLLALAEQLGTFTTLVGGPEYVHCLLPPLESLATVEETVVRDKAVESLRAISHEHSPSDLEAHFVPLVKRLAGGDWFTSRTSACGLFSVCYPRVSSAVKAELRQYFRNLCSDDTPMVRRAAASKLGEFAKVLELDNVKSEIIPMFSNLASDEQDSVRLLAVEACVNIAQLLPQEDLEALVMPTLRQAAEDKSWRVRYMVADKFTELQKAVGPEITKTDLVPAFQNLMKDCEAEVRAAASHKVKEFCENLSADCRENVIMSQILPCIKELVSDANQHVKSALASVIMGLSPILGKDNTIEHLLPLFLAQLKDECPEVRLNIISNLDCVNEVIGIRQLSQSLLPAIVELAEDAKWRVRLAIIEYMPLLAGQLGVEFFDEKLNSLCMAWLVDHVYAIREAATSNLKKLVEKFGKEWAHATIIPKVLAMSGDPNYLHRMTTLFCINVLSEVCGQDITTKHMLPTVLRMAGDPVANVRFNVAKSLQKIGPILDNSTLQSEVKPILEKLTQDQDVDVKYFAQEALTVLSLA

Take `C=C(CCC(C)C)COC(=O)[C@H](O)C/C=C\C[C@@H]1O[C@@H]2/C=C/C/C=C/C(C)=C\[C@H]3O[C@@H](C/C=C/C=C/C(=O)O[C@H](C2)[C@@]1(C)CO)C[C@H](O)[C@H]3C` [Lasonolide A]: the “phosphorylation of H3 (Ser28)” value in [1] is listed as “increased the phosphorylation of H3 (Ser28)”. The “acetylation of histone H3” value in [2] is on record as “decreased the acetylation of histone H3 Lysine 9; also recorded: decreased the acetylation of H3 (Arg9)”. In addition, in assay [2] (with SAHA), the “H3 acetylation induced by the HDAC inhibitor SAHA” value is “attenuated the enhancement of H3 acetylation”. Besides, the “protein level of cyclinB1” value in assay [3] is on record as “decreased the protein level of cyclinB1”. Besides, the “reversibility of PCC induction” value in assay [4] is reported as “reversible”. The “time to PCC induction” value in [4] (nanomolar concentrations) was not above 1 h. Further, the “PCC induction compared with Okadaic Acid” value in [4] (tumor cells and normal human lymphocytes) is on record as “more potent ability of PCC induction”. The “phosphorylation of H3 (Ser28), immunofluorescence” value in assay [5] is “showed the phosphorylation of H3 (Ser28)”. Moreover, the cell cycle arrest result in assay [6] and in assay [7] was “induced cell cycle arrest at G2/M phase” throughout. Besides, in [8], the “lymphocytes going to PCC” value turned out to be 35.5%. In assay [9], the “inhibitory effect on PP1” value is “weaker inhibitory effect”. Also, the “inhibitory effect on PP2A” value in [10] is given as “weaker inhibitory effect”. Moreover, the “DNA replication (BrdU incorporation)” value in assay [11], in assay [12] and in assay [13] was “decelerated DNA replication” throughout. Also, the “cell cycle phases in which PCC is induced” value in [14] was “induce PCC in each phases of cell cycle; also recorded: induce PCC in each phase of the cell cycle”.
